Results published in patent publication EP4707280A1, “1,4-CINEOLE DERIVATIVE AND INTERMEDIATE THEREOF, HERBICIDE CONTAINING SAID DERIVATIVE AS ACTIVE INGREDIENT, METHOD FOR USING HERBICIDE, AND METHOD FOR PREPARING AGROCHEMICAL COMPOSITION” (HOKKO CHEMICAL INDUSTRY CO., LTD., priority 2023, dated 2024).

Legend:
Type in all cases: in vivo
Lindernia pyxidaria [1] = test: Test Example 6: herbicidal effect test by application during growth period of paddy rice (low dose); details: 7.5 g per 10 ares, applied seven days after sowing, flooded pots, 14 days after application, read-out: weed inhibition rate
Procedure, shortened: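 Paddy soil in flooded Wagner pots (about 3 cm water), weeds sown at 0–1 cm, 30 seeds each, grown in a glass greenhouse. Seven days after sowing, water-diluted emulsifiable concentrate was dropped into the water at 7.5 g active ingredient per 10 ares. Weed inhibition rate (%) was scored 14 days after application, in duplicate.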

Amaranthus viridis [2] = test: Test Example 7: herbicidal effect test by soil application in upland field (low dose); details: 7.5 g per 10 ares, sprayed one day after sowing, upland soil, 14 days after application, read-out: weed inhibition rate
Lindernia pyxidaria [3] = test: Test Example 1: herbicidal effect test by soil application in paddy rice; details: 336 h, 120 g active ingredient per 10 ares, applied immediately after sowing, flooded pots, 14 days after application, read-out: weed inhibition rate
Procedure, shortened: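 Pre-emergence test in puddled, flooded paddy soil (about 3 cm water), 30 seeds per weed sown at 0–1 cm depth in a glass greenhouse. Emulsifiable concentrate diluted in water and dropped onto the pots straight after sowing at 120 g a.i. per 10 ares. Weed inhibition (%) scored at 14 days, in duplicate.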

Lindernia pyxidaria [4] = test: Test Example 5: herbicidal effect test by soil application in paddy rice (low dose); details: 336 h, 7.5 g per 10 ares, applied immediately after sowing, flooded pots, 14 days after application, read-out: weed inhibition rate
Procedure, shortened: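 Paddy soil in Wagner pots was fertilized (N:P:K 16:16:16), puddled, sown with 30 seeds per weed species at 0–1 cm, then flooded to ~3 cm in a glass greenhouse. Emulsifiable concentrate diluted in water was dropper-applied into floodwater immediately, at 7.5 g active ingredient per 10 ares; duplicates, scored at 14 days.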

Lindernia pyxidaria [5] = test: Test Example 2: herbicidal effect test by application during growth period of paddy rice; details: 120 g per 10 ares, applied seven days after sowing, flooded pots, 14 days after application, read-out: weed inhibition rate
Procedure, shortened: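 Paddy soil in Wagner pots was puddled with N:P:K 16:16:16 fertilizer, sown with 30 weed seeds per species at 0–1 cm and flooded to about 3 cm. Seven days after sowing, a water-diluted emulsifiable concentrate was dropped onto the water at 120 g active ingredient per 10 ares. Weed inhibition (%) was scored at 14 days, in duplicate.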

Chenopodium album [6] = test: Test Example 4: herbicidal effect test by stem and leaf treatment in upland field; details: 120 g per 10 ares, sprayed seven days after sowing, upland soil, 14 days after application, read-out: weed inhibition rate
Amaranthus viridis [7] = test: as above; details: 120 g per 10 ares, sprayed seven days after sowing, upland soil, 14 days after application, read-out: weed inhibition rate
Procedure, shortened: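 Read-out: weed inhibition rate (%), calculated 14 days post-application, each concentration group in duplicate. Treatment was a spray of diluted emulsifiable concentrate (100 liters per 10 ares; 120 g a.i. per 10 ares) onto pots sown 7 days earlier in alluvial loam.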

Amaranthus viridis [8] = test: Test Example 8: herbicidal effect test by stem and leaf treatment in upland field (low dose); details: 7.5 g per 10 ares, sprayed seven days after sowing, upland soil, 14 days after application, read-out: weed inhibition rate
Procedure, shortened: (§1)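 Post-emergence spray, seven days after sowing, of water-diluted emulsifiable concentrate at 100 L per 10 ares, delivering 7.5 g active ingredient per 10 ares, onto 36 cm^2 pots of alluvial loam. Weed inhibition rate (%) scored 14 days after application, in duplicate.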

Chenopodium album [9] = test: as above; details: 7.5 g per 10 ares, sprayed seven days after sowing, upland soil, 14 days after application, read-out: weed inhibition rate
Procedure, shortened: as §1

Chenopodium album [10] = test: Test Example 7: herbicidal effect test by soil application in upland field (low dose); details: 7.5 g per 10 ares, sprayed one day after sowing, 14 days after application, read-out: weed inhibition rate
Procedure, shortened: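 Pre-emergence soil application: upland alluvial loam pots sown with weed seeds mixed into the top 1 cm; one day after sowing, a water-diluted emulsifiable concentrate was sprayed on the soil at 100 L per 10 a, delivering 7.5 g active ingredient per 10 a. Weed inhibition rate (%) scored 14 days after application, duplicate pots.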

C#CCO[C@@H]1C[C@]2(C)O[C@@]1(C(C)C)C[C@H]2OCc1ccccc1F [1-931, (1S,2R,4R,5R)-2-[(2-fluorophenyl)methoxy]-1-methyl-4-isopropyl-5-prop-2-ynoxy-7-oxabicyclo[2.2.1]heptane]
≥ 80%: inhibition at 75 g/ha (Lindernia pyxidaria [1]) | inhibition at 75 g/ha (Amaranthus viridis [2]) | pest or weed control at 1200 g/ha (Lindernia pyxidaria [3]) | inhibition at 75 g/ha (Lindernia pyxidaria [4]) | inhibition at 1200 g/ha (Lindernia pyxidaria [5]) | inhibition at 1200 g/ha (Chenopodium album [6]) | inhibition at 1200 g/ha (Amaranthus viridis [7]) | inhibition at 75 g/ha (Amaranthus viridis [8])

Cc1ccccc1CO[C@@H]1C[C@]2(C(C)C)O[C@@]1(C)C[C@@H]2F [1-2, (1R,2S,4S,5R)-2-fluoro-1-isopropyl-4-methyl-5-((2-methylbenzyl)oxy)-7-oxabicyclo[2.2.1]heptane]
≥ 80%: inhibition at 1200 g/ha (Lindernia pyxidaria [5]) | inhibition at 1200 g/ha (Chenopodium album [6]) | inhibition at 1200 g/ha (Amaranthus viridis [7]) | inhibition at 75 g/ha (Chenopodium album [9]) | inhibition at 75 g/ha (Amaranthus viridis [8])

CC(C)[C@]12C[C@@H](OCc3ccccc3F)[C@](C)(CC1OCC1CC1)O2 (mixture of isomers) [1-921, (1S,2R,4R,SR)-5-(cyclopropylmethoxy)-2-[(2-fluorophenyl)methoxy]-1-methyl-4-isopropyl-7-oxabicyclo[2.2.1]heptane]
≥ 80%: inhibition at 75 g/ha (Lindernia pyxidaria [1]) | inhibition at 75 g/ha (Amaranthus viridis [2]) | pest or weed control at 1200 g/ha (Lindernia pyxidaria [3]) | inhibition at 75 g/ha (Lindernia pyxidaria [4]) | inhibition at 1200 g/ha (Lindernia pyxidaria [5]) | inhibition at 75 g/ha (Chenopodium album [10]) | inhibition at 1200 g/ha (Chenopodium album [6]) | inhibition at 1200 g/ha (Amaranthus viridis [7]) | inhibition at 75 g/ha (Chenopodium album [9]) | inhibition at 75 g/ha (Amaranthus viridis [8])

C=CCO[C@@H]1C[C@]2(C)O[C@@]1(C(C)C)C[C@H]2OCc1ccccc1F [1-930, (1S,2R,4R,5R)-2-[(2-fluorophenyl)methoxy]-1-methyl-4-isopropyl-5-prop-2-enoxy-7-oxabicyclo[2.2.1]heptane]
≥ 80%: inhibition at 75 g/ha (Lindernia pyxidaria [1]) | inhibition at 75 g/ha (Amaranthus viridis [2]) | pest or weed control at 1200 g/ha (Lindernia pyxidaria [3]) | inhibition at 75 g/ha (Lindernia pyxidaria [4]) | inhibition at 1200 g/ha (Lindernia pyxidaria [5]) | inhibition at 75 g/ha (Chenopodium album [10]) | inhibition at 1200 g/ha (Chenopodium album [6]) | inhibition at 1200 g/ha (Amaranthus viridis [7]) | inhibition at 75 g/ha (Chenopodium album [9]) | inhibition at 75 g/ha (Amaranthus viridis [8])
